Measurements: article PMC4076210, “Discovery of Novel AKT Inhibitors with Enhanced Anti-Tumor Effects in Combination with the MEK Inhibitor” (PLoS ONE, 2014)

System: solid tumor cell lines
Experiment: 3-day proliferation assay (CellTiter-Glo)
Assay type: cell-based, human
Conditions: for IC50: Homo sapiens
Procedure: Various tumor cell lines were obtained from different sources including; the American Type Cell Culture Collection, the Developmental Therapeutics Program, the National Cancer Institute, the German Resource Center for Biological Material and the European Collection of Animal Cell Cultures. Cell lines were typically grown in […] containing 10% FBS. Some cell lines were grown in media specified by the vendor. A 3-day proliferation assay using CellTiter-Glo (CTG, Promega) was performed to measure the growth inhibition by the compounds at 0–30 µM. Cell growth was determined relative to untreated (DMSO) controls. EC50's were calculated from inhibition curves using a 4- or 6-parameter fitting algorithm in the Assay Client application.

SMILES: Cn1ncc(Cl)c1-c1cc(C(=O)N[C@H](CN)Cc2cccc(F)c2)sc1Cl [GSK2110183]
- solid tumor cell lines with EC50<1 µM (178 cell lines, 3 days, CTG): 21%
- IC50 (22Rv1, 22Rv1, Prostate): 0.706 µM
- IC50 (647-V, 647V, Bladder): 11.5 µM
- IC50 (786-0, 786-O, Kidney): 1.64 µM
- IC50 (A204, A204, Sarcoma): 2.14 µM
- IC50 (A549, A549, Lung): 3.28 µM
- IC50 (A673, A673, Sarcoma): 19.9 µM
- IC50 (A2780, A2780, Ovary): 4.03 µM
- IC50 (A-375, A375, Skin): 8.68 µM
- IC50 (A-427, A427, Lung): 19 µM
- IC50 (ACHN, Kidney): 3.71 µM
- IC50 (AGS, Stomach): 0.964 µM
- IC50 (BE(2)-C, BE2C, Neuroblastoma): 1.47 µM
- IC50 (BFTC-905, BFTC905, Bladder): 2.64 µM
- IC50 (BT-20, BT20, Breast): 0.311 µM
- IC50 (BXPC-3, BXPC3, Pancreas): > 30 µM
- IC50 (C3A, Liver): 1.75 µM
- IC50 (C32TG, Skin): 0.975 µM
- IC50 (C-33-A, C-33A, Cervix): 0.541 µM
- IC50 (C-41, Cervix): 15.2 µM
- IC50 (CAL-27, CAL27, Head & Neck): 8.01 µM
- IC50 (CAL-62, CAL62, Thyroid): 10.4 µM
- IC50 (CCF-STTG1, CCFSTTG1, Brain): 0.673 µM
- IC50 (CGTH-W-1, CGTHW1, Thyroid): 3.07 µM
- IC50 (CHL-1, CHL1, Skin): 3.79 µM
- IC50 (CHP-212, CHP212, Neuroblastoma): 2.32 µM
- IC50 (COLO 205, COLO205, Colon): 7.58 µM
- IC50 (COLO 320DM, COLO320DM, Colon): 1.34 µM
- IC50 (COLO 704, COLO704, Ovary): 0.339 µM
- IC50 (COR-L23, CORL23, Lung): 3.92 µM
- IC50 (Calu-3, CALU3, Lung): 3.31 µM
- IC50 (Calu-6, CALU6, Lung): 5.49 µM
- IC50 (Caov-3, CAOV3, Ovary): 6.18 µM
- IC50 (Capan-2, Capan2, Pancreas): 9.38 µM
- IC50 (DBTRG-05MG, DBTRG05MG, Brain): 4.43 µM
- IC50 (DKMG, Brain): 3.68 µM
- IC50 (DLD-1, DLD1, Colon): 8.45 µM
- IC50 (DU-145, DU145, Prostate): 6.54 µM
- IC50 (DU-4475, DU4475, Breast): 2.27 µM
- IC50 (DoTc2-4510, DoTc24510, Cervix): 2.25 µM
- IC50 (EFM-19, EFM19, Breast): 0.117 µM
- IC50 (EKVX, Lung): 5.54 µM
- IC50 (ES2, Ovary): 4.52 µM
- IC50 (FaDu, Head & Neck): 10.5 µM
- IC50 (G-401, G401, Head & Neck): 1.12 µM
- IC50 (GCT, Sarcoma): 5.89 µM
- IC50 (H4, Brain): 2.99 µM
- IC50 (HCC70, HCC70, Breast): 0.081 µM
- IC50 (HCC1954, HCC1954, Breast): 0.32 µM
- IC50 (HCC 2998, HCC2998, Colon): 2.2 µM
- IC50 (HCT-116, HCT116, Colon): 5.64 µM
- IC50 (HMCB, Skin): 4.46 µM
- IC50 (HN5, Head & Neck): 2.96 µM
- IC50 (HOS, Sarcoma): 2.46 µM
- IC50 (HPAF-II, HPAFII, Pancreas): 7.49 µM
- IC50 (HT3, Cervix): 2.66 µM
- IC50 (HT-29, HT29, Colon): 2.02 µM
- IC50 (HT-1080, HT1080, Sarcoma): 7.92 µM
- IC50 (HUVEC, Normal Endothelial): 3 µM
- IC50 (HeLa, Cervix): 6.33 µM
- IC50 (Hep3B, Liver): 0.399 µM
- IC50 (Hs746T, Stomach): 2.07 µM
- IC50 (IGROV-1, IGROV1, Ovary): 0.054 µM
- IC50 (J82, Bladder): 2.07 µM
- IC50 (KATO III, KATOIII, Stomach): 0.571 µM
- IC50 (KHOS-240S, KHOS240S, Sarcoma): 8.15 µM
- IC50 (KM12, KM12, Colon): 6.49 µM
- IC50 (KPL-1, KPL1, Breast): 3.83 µM
- IC50 (KYSE-30, KYSE30, Oesophagus): 3.44 µM
- IC50 (LNCaP, Prostate): 0.076 µM
- IC50 (LS174T, Colon): 3.47 µM
- IC50 (LS-1034, LS1034, Colon): 3.17 µM
- IC50 (M14, Skin): 4.88 µM
- IC50 (MC-IXC, MCIXC, Neuroblastoma): 1.05 µM
- IC50 (MCF7, MCF7, Breast): 0.473 µM
- IC50 (MCF-10A, MCF10A, Normal Breast): 0.644 µM
- IC50 (MDA-MB-175-VII, MDAMB175-VII, Breast): 0.189 µM
- IC50 (MDA-MB-231, MDAMB231, Breast): 13.2 µM
- IC50 (MDA-MB-453, MDAMB453, Breast): 1.17 µM
- IC50 (MDA-MB-468, MDAMB468, Breast): 0.995 µM
- IC50 (MES-SA, MESSA, Sarcoma): 0.66 µM
- IC50 (MIA PaCa-2, MiaPaCa, Pancreas): 1.71 µM
- IC50 (NCI-H69, NCIH69, Lung): 1.39 µM
- IC50 (NCI-H82, NCIH82, Lung): 29.3 µM
- IC50 (NCI-H146, NCIH146, Lung): 11.3 µM
- IC50 (NCI-H157, NCIH157, Lung): 2.03 µM
- IC50 (NCI-H187, NCIH187, Lung): 0.263 µM
- IC50 (NCI-H209, NCI-H209, Lung): 4.43 µM
- IC50 (NCI-H226, NCIH226, Lung): 6.14 µM
- IC50 (NCI-H292, NCIH292, Lung): 4.82 µM
- IC50 (NCI-H322, NCIH322, Lung): 9.34 µM
- IC50 (NCI-H358, NCI-H358, Lung): 1.93 µM
- IC50 (NCI-H446, NCIH446, Lung): 1.14 µM
- IC50 (NCI-H460, NCIH460, Lung): 3.73 µM
- IC50 (NCI-H508, NCIH508, Lung): 0.309 µM
- IC50 (NCI-H520, NCIH520, Lung): 0.935 µM
- IC50 (NCI-H630, NCIH630, Lung): 5.95 µM
- IC50 (NCI-H661, NCIH661, Lung): 5.5 µM
- IC50 (NCI-H716, NCIH716, Colon): 3.85 µM
- IC50 (NCI-H747, NCIH747, Lung): 2.05 µM
- IC50 (NCI-H1563, NCIH1563, Lung): 0.582 µM
- IC50 (NCI-H1792, NCIH1792, Lung): 4.68 µM
- IC50 (NCI-H2030, NCIH2030, Lung): 5.67 µM
- IC50 (NCI-H2052, NCIH2052, Lung): 4.75 µM
- IC50 (NCI-H2081, NCIH2081, Lung): 0.73 µM
- IC50 (NCI-H2122, NCIH2122, Lung): 2.97 µM
- IC50 (NCI-H2170, NCI-H2170, Lung): 1.56 µM
- IC50 (NCI-H2228, NCIH2228, Lung): 0.926 µM
- IC50 (NCI-N87, NCIN87, Stomach): 1.29 µM
- IC50 (NCI/ADR-RES, NCIADRRES, Breast): 12.3 µM
- IC50 (OE19, OE19, Oesophagus): 5.52 µM
- IC50 (OE21, OE21, Oesophagus): 0.256 µM
- IC50 (OE33, OE33, Oesophagus): 8.07 µM
- IC50 (OV-90, OV90, Ovary): 4.69 µM
- IC50 (OVCAR-3, OVCAR3, Ovary): 5.85 µM
- IC50 (OVCAR-4, OVCAR4, Ovary): 20 µM
- IC50 (OVCAR-5, OVCAR5, Ovary): 7.72 µM
- IC50 (PANC-1, Panc1, Pancreas): 4.42 µM
- IC50 (PC3, Prostate): 3.02 µM
- IC50 (PL45, PL45, Pancreas): 6.98 µM
- IC50 (Panc 02.03, Panc02.03, Pancreas): 14.4 µM
- IC50 (RD, Sarcoma): 11.3 µM
- IC50 (RD-ES, RDES, Sarcoma): 2.41 µM
- IC50 (RKO, Colon): 1.46 µM
- IC50 (SAOS-2, SAOS2, Sarcoma): 5.35 µM
- IC50 (SCC12, SCC12, Head & Neck): 3.85 µM
- IC50 (SCC-9, SCC9, Head & Neck): 6.58 µM
- IC50 (SCC-13, SCC-13, Head & Neck): 18.8 µM
- IC50 (SCC-15, SCC15, Head & Neck): 4.17 µM
- IC50 (SCC-25, SCC-25, Head & Neck): 4.69 µM
- IC50 (SCLC3, Lung): 0.22 µM
- IC50 (SF-295, SF295, Brain): 0.835 µM
- IC50 (SF-539, SF539, Brain): 0.891 µM
- IC50 (SH4, Skin): > 30 µM
- IC50 (SHP77, SHP77, Lung): 5.22 µM
- IC50 (SJRH30, SJRH30, Sarcoma): 0.919 µM
- IC50 (SK-BR-3, SKBR3, Breast): 0.371 µM
- IC50 (SK-LMS-1, SKLMS1, Sarcoma): 7.98 µM
- IC50 (SK-MEL-1, SKMEL1, Skin): 2.14 µM
- IC50 (SK-MEL-28, SKMEL28, Skin): 3.23 µM
- IC50 (SK-MES-1, SKMES-1, Lung): 4.55 µM
- IC50 (SK-N-AS, SKNAS, Neuroblastoma): 7.09 µM
- IC50 (SK-OV-3, SKOV3, Ovary): 1.1 µM
- IC50 (SK-UT-1, SKUT1, Sarcoma): 0.504 µM
- IC50 (SKNF1, Neuroblastoma): 0.886 µM
- IC50 (SN12C, Kidney): > 30 µM
- IC50 (SNB-75, SNB75, Brain): 1.47 µM
- IC50 (SNU1, SNU1, Stomach): 2.15 µM
- IC50 (SNU-5, SNU5, Stomach): 11.8 µM
- IC50 (SNU-16, SNU16, Stomach): 6.58 µM
- IC50 (SNU-398, SNU398, Liver): 27.3 µM
- IC50 (SNU-449, SNU449, Liver): 6.66 µM
- IC50 (SW48, SW48, Colon): 0.807 µM
- IC50 (SW480, SW480, Colon): > 30 µM
- IC50 (SW579, SW579, Thyroid): 1.82 µM
- IC50 (SW684, SW684, Sarcoma): 1.04 µM
- IC50 (SW756, SW756, Cervix): 10.4 µM
- IC50 (SW780, SW780, Bladder): 8.44 µM
- IC50 (SW872, SW872, Sarcoma): 0.919 µM
- IC50 (SW900, SW900, Lung): 15.6 µM
- IC50 (SW1088, SW1088, Brain): 0.952 µM
- IC50 (SW1417, SW1417, Colon): 3.96 µM
- IC50 (SW1783, SW1783, Brain): 0.592 µM
- IC50 (SW1990, SW1990, Pancreas): 13.3 µM
- IC50 (Skut1B, Sarcoma): 0.021 µM
- IC50 (T47D, T-47D, Breast): 0.331 µM
- IC50 (T84, Colon): 8.49 µM
- IC50 (TE 381.T, TE381T, Sarcoma): 1.63 µM
- IC50 (TK-10, TK10, Kidney): 4.8 µM
- IC50 (U20S, Sarcoma): > 30 µM
- IC50 (U138-MG, U138MG, Brain): 2.81 µM
- IC50 (U-87 MG, U87MG, Brain): 4.97 µM
- IC50 (U-251, U251, Brain): 2.43 µM
- IC50 (UACC-62, UACC62, Skin): 2.09 µM
- IC50 (UACC-257, UACC257, Skin): 5.26 µM
- IC50 (UMUC3, UMUC3, Bladder): 10 µM
- IC50 (YAPC, Pancreas): 8.3 µM
- IC50 (ZR-75-1, ZR75-1, Breast): 0.088 µM
